The text below walks through data of patent US11566007B2, “Ras inhibitors” (Revolution Medicines, Inc., priority 2019, dated 2023).

Common to all, as to type: biochemical
One test addresses KRAS G12D (Homo sapiens (Human), UniProt P01116+P62937, G12D). Put plainly: Ras-Raf (BRAF RBD) disruption / FRET / MOA assay, KRAS G12D. The conditions noted are these: Ras-Raf disruption/FRET/MOA assay; class symbols; read-out: KRAS G12D FRET data IC50. The method, boiled down:
(§1)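 Compound-driven ternary complex of nucleotide-loaded Ras with cyclophilin A, disrupting BRAF RBD binding. 10-point 3-fold dilution from 30 μM final, 3 h at 25° C, then anti-His Eu-W1024 (10 nM) and anti-GST allophycocyanin (50 nM) for 1.5 h. IC50 from TR-FRET ratio decrease versus DMSO.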

The target in another test is NRAS Q61K (Homo sapiens (Human), UniProt P01111+P62937, Q61K). Put plainly: Ras-Raf (BRAF RBD) disruption / FRET / MOA assay, NRAS Q61K. Conditions: NRAS Q61K; Ras-Raf disruption/FRET/MOA assay; read-out: IC50* NRAS Q61K FRET data. The method, boiled down:
(§2)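 Compounds (30 μM top final, 10-point 3-fold dilutions) incubated 3 h at 25° C with nucleotide-loaded Ras, cyclophilin A and BRAF RBD. Detection with 10 nM anti-His Eu-W1024 and 50 nM anti-GST allophycocyanin over another 1.5 h. Lowered TR-FRET ratio relative to DMSO wells gives IC50.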

In the next test the target is KRAS G13D (Homo sapiens (Human), UniProt P01116+P62937, G13D). Put plainly: Ras-Raf (BRAF RBD) disruption / FRET / MOA assay, KRAS G13D. The conditions noted are these: read-out: IC50* KRAS G13D FRET data. The method, boiled down: as §1
Sequence of KRAS G13D (P01116-2 other isoform, or with tags, fused parts or gaps G13D): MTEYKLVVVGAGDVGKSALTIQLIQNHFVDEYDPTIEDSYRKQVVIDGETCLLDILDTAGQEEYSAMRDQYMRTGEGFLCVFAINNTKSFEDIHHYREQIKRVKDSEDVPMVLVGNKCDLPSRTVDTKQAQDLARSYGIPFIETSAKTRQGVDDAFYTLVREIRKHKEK
Sequence of KRAS G13D (P62937 whole entry): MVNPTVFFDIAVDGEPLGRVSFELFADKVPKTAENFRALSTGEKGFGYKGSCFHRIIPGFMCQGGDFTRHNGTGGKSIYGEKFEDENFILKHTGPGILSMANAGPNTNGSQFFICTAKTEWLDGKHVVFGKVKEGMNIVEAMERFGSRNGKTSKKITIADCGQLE
A further test has as its target KRAS G12S (Homo sapiens (Human), UniProt P01116+P62937, G12S). Put plainly: Ras-Raf (BRAF RBD) disruption / FRET / MOA assay, KRAS G12S. Conditions: Ras-Raf disruption/FRET/MOA assay; class symbols; read-out: KRAS G12S FRET data IC50. The method, boiled down: as §1
For the next test, the target named is KRAS WT (Homo sapiens (Human), UniProt P01116+P62937). Put plainly: Ras-Raf (BRAF RBD) disruption / FRET / MOA assay, KRAS WT. The conditions noted are these: read-out: IC50* KRAS WT FRET data. The method, boiled down: as §1
Sequence of KRAS WT (P01116-2 other isoform, or with tags, fused parts or gaps): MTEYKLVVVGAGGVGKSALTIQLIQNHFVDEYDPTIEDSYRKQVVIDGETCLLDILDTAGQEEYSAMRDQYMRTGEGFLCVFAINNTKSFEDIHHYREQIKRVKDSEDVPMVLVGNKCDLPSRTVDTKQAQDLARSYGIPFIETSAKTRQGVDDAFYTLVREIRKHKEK
Sequence of KRAS WT (P62937 whole entry): as the sequence (P62937 whole entry) above
The next test addresses KRAS G12V (Homo sapiens (Human), UniProt P01116+P62937, G12V). Put plainly: Ras-Raf (BRAF RBD) disruption / FRET / MOA assay, KRAS G12V. Conditions: read-out: IC50* KRAS G12V FRET data. The method, boiled down: as §1
For the next test, the target named is KRAS Q61H (Homo sapiens (Human), UniProt P01116+P62937, Q61H). Put plainly: Ras-Raf (BRAF RBD) disruption / FRET / MOA assay, KRAS Q61H. Conditions: Ras-Raf disruption/FRET/MOA assay; class symbols; read-out: KRAS Q61H FRET data IC50. The method, boiled down:
as §2

For a further test, the target named is K-Ras G12C (Homo sapiens (Human), UniProt P01116+P62937, G12C). Put plainly: Ras-Raf (BRAF RBD) disruption / FRET / MOA assay, KRAS G12C. Conditions: KRAS G12C; Ras-Raf disruption/FRET/MOA assay; read-out: IC50* KRAS G12C FRET data. The method, boiled down: as §1
Sequence of K-Ras G12C (P01116-2 other isoform, or with tags, fused parts or gaps G12C): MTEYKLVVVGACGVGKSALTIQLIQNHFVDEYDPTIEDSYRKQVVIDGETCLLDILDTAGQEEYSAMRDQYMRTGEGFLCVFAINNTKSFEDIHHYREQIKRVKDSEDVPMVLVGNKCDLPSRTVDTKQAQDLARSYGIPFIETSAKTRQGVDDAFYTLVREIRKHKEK
Sequence of K-Ras G12C (P62937 whole entry): as the sequence (P62937 whole entry) above
In the next test the target is NRAS WT (Homo sapiens (Human), UniProt P01111+P62937). Put plainly: Ras-Raf (BRAF RBD) disruption / FRET / MOA assay, NRAS WT. The conditions noted are these: read-out: IC50* NRAS WT FRET data. The method, boiled down: as §2
Sequence of NRAS WT (P01111 whole entry): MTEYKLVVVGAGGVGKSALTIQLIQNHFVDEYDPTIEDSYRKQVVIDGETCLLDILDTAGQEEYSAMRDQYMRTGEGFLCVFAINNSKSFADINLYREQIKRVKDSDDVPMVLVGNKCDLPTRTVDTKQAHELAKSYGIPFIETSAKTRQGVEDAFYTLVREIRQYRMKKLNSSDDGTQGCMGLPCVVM
Sequence of NRAS WT (P62937 whole entry): as the sequence (P62937 whole entry) above

Sequence of NRAS Q61K (P01111 whole entry Q61K): as the sequence (P01111 whole entry) above, with Q61K counted along it
Sequence of NRAS Q61K (P62937 whole entry): as the sequence (P62937 whole entry) above
Sequence of KRAS Q61H (P01116-2 other isoform, or with tags, fused parts or gaps Q61H): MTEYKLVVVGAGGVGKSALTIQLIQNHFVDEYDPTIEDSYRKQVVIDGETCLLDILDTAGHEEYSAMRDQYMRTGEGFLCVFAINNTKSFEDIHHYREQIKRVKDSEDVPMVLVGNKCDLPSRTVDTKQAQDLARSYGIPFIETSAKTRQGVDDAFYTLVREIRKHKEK
Sequence of KRAS Q61H (P62937 whole entry): as the sequence (P62937 whole entry) above
Sequence of KRAS G12S (P01116-2 other isoform, or with tags, fused parts or gaps G12S): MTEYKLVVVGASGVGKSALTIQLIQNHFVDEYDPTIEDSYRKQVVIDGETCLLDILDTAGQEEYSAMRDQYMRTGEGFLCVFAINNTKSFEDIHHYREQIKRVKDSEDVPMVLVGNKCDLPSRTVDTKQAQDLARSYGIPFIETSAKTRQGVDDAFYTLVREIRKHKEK
Sequence of KRAS G12S (P62937 whole entry): as the sequence (P62937 whole entry) above
Sequence of KRAS G12V (P01116-2 other isoform, or with tags, fused parts or gaps G12V): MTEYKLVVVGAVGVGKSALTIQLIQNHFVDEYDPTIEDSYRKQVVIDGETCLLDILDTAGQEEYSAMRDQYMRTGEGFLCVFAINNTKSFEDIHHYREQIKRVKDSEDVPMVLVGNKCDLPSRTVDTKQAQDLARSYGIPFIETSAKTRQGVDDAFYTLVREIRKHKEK
Sequence of KRAS G12V (P62937 whole entry): as the sequence (P62937 whole entry) above
Sequence of KRAS G12D (P01116-2 other isoform, or with tags, fused parts or gaps G12D): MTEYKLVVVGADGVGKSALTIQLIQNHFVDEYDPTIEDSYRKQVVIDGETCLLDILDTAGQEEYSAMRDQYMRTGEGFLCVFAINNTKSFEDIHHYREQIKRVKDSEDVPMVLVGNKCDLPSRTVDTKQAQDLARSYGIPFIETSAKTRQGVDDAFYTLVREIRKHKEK
Sequence of KRAS G12D (P62937 whole entry): as the sequence (P62937 whole entry) above

Regarding `CCn1c(-c2cccnc2[C@H](C)OC)c2c3cc(ccc31)-c1cccc(c1)C[C@H](NC(=O)[C@@H](COC1CN(C(=O)C#CC(C)(C)N(C)C(C)C)C1)C(C)C)C(=O)N1CCC[C@H](N1)C(=O)OCC(C)(C)C2` (atropisomer, axis not shown) [Example A599], the IC50 at KRAS G12D is > 10 µM; on NRAS Q61K it was > 10 µM; on KRAS G13D, > 10 µM; on KRAS G12S, > 10 µM; at KRAS WT, > 10 µM; on KRAS G12V, 1 to 10 µM. Besides, the IC50 is > 10 µM on KRAS Q61H, < 0.01 µM at K-Ras G12C and > 10 µM on NRAS WT.

Regarding `CO[C@@H](C)c1ncccc1-c1c2c3cc(ccc3n1CC(F)(F)F)-c1cccc(c1)CN(NC(=O)[C@@H](COC1CN(C(=O)C#CC(C)(C)N(C)C)C1)C(C)C)C(=O)N1CCC[C@H](N1)C(=O)OCC(C)(C)C2` (atropisomer, axis not shown) [Example A601], the IC50 is > 10 µM at KRAS G12D; 1 to 10 µM on NRAS Q61K; 1 to 10 µM at KRAS G13D; 1 to 10 µM on KRAS G12S; 1 to 10 µM at KRAS WT; 1 to 10 µM on KRAS G12V. Moreover, the results for the IC50 on KRAS Q61H, on K-Ras G12C and on NRAS WT were 1 to 10 µM, < 0.01 µM and 1 to 10 µM, respectively.

With `CO[C@@H](C)c1ncccc1-c1c2c3cc(ccc3n1CC(F)(F)F)-c1csc(n1)C[C@H](NC(=O)[C@H](C(C)C)N(C)C(=O)N1CCC3(CC1)CN(C(=O)/C=C/CF)C3)C(=O)N1CCC[C@H](N1)C(=O)OCC(C)(C)C2` (atropisomer, axis not shown) [Example A602], the IC50 lay in the range of 0.1 to 1 µM on KRAS G12D; 0.01 to 0.1 µM on NRAS Q61K; 0.1 to 1 µM on KRAS G13D; 0.01 to 0.1 µM on KRAS G12S; 0.01 to 0.1 µM on KRAS WT; 0.01 to 0.1 µM on KRAS G12V. Further, the concentration for half-maximal inhibition (IC50) at KRAS Q61H, at K-Ras G12C and on NRAS WT was 0.01 to 0.1 µM throughout.

`C=CC(=O)N1CCOC2(CCN(C(=O)N(C)[C@H](C(=O)N[C@H]3Cc4nc(n(C)n4)-c4ccc5c(c4)c(c(-c4cccnc4[C@H](C)OC)n5CC(F)(F)F)CC(C)(C)COC(=O)[C@@H]4CCCN(N4)C3=O)C(C)C)CC2)C1` (atropisomer, axis not shown) [Example A606]: the half-maximal inhibitory concentration (IC50) was in the range of 1 to 10 µM at KRAS G12D; 0.1 to 1 µM at NRAS Q61K; 0.1 to 1 µM on KRAS G13D; 0.1 to 1 µM at KRAS G12S; 0.1 to 1 µM on KRAS WT; 0.1 to 1 µM at KRAS G12V. Moreover, the figures for the IC50 at KRAS Q61H, on K-Ras G12C and at NRAS WT were 0.01 to 0.1 µM, 0.1 to 1 µM and 0.1 to 1 µM, respectively.

Regarding `C=CC(=O)N1CC2(C1)OCCN2C(=O)N(C)[C@H](C(=O)N[C@H]1Cc2nc(cs2)-c2ccc3c(c2)c(c(-c2cccnc2[C@H](C)OC)n3CC)CC(C)(C)COC(=O)[C@@H]2CCCN(N2)C1=O)C(C)C` (atropisomer, axis not shown) [Example A620], the IC50 was 1 to 10 µM on KRAS G12D; 0.01 to 0.1 µM on NRAS Q61K; 0.1 to 1 µM at KRAS G13D; 0.1 to 1 µM at KRAS G12S; 0.1 to 1 µM on KRAS WT; 0.1 to 1 µM on KRAS G12V. The IC50 is 0.01 to 0.1 µM on KRAS Q61H, < 0.01 µM at K-Ras G12C and 0.1 to 1 µM at NRAS WT.

Regarding `CCn1c(-c2cccnc2[C@H](C)OC)c2c3cc(ccc31)-c1cccc(n1)C[C@H](NC(=O)[C@H](C(C)C)N(C)C(=O)N1CCC13CN(C(=O)C#CC(C)(C)N(C)C)C3)C(=O)N1CCC[C@H](N1)C(=O)OCC(C)(C)C2` (atropisomer, axis not shown) [Example A623], the IC50 at KRAS G12D fell in the range of 1 to 10 µM; on NRAS Q61K it was 0.1 to 1 µM; on KRAS G13D, 1 to 10 µM; on KRAS G12S, 1 to 10 µM; at KRAS WT, 1 to 10 µM; at KRAS G12V, 1 to 10 µM. The results for the IC50 on KRAS Q61H, at K-Ras G12C and on NRAS WT were 0.1 to 1 µM, 0.1 to 1 µM and 1 to 10 µM, respectively.

Turning to `CCn1c(-c2cccnc2[C@H](C)OC)c2c3cc(ccc31)-c1csc(n1)C[C@H](NC(=O)C[C@H](C)OC1CN(C(=O)C#CC(C)(C)N(C)C)C1)C(=O)N1CCC[C@H](N1)C(=O)OCC(C)(C)C2` (atropisomer, axis not shown) [Example A637], the IC50 at KRAS G12D was > 10 µM; at NRAS Q61K, 1 to 10 µM; at KRAS G13D, 1 to 10 µM; at KRAS G12S, 1 to 10 µM; at KRAS WT, 1 to 10 µM; on KRAS G12V, 1 to 10 µM. Moreover, the IC50 on KRAS Q61H was in the range of 1 to 10 µM; at K-Ras G12C, 0.01 to 0.1 µM; at NRAS WT, 1 to 10 µM.

In the case of `CO[C@@H](C)c1ncccc1-c1c2c3cc(ccc3n1CC(F)(F)F)N1CCO[C@@H](C[C@H](NC(=O)[C@H](C(C)C)N3CC[C@]4(CCN(C(=O)C#CC(C)(C)N(C)C)C4)C3=O)C(=O)N3CCC[C@H](N3)C(=O)OCC(C)(C)C2)C1` (atropisomer, axis not shown) [Example A642], the IC50 on KRAS G12D was > 10 µM; at NRAS Q61K, > 10 µM; at KRAS G13D, 1 to 10 µM; at KRAS G12S, 1 to 10 µM; at KRAS WT, 1 to 10 µM; at KRAS G12V it was 1 to 10 µM. The IC50 was 1 to 10 µM at KRAS Q61H, < 0.01 µM at K-Ras G12C and 1 to 10 µM at NRAS WT.

As to `CCn1c(-c2cccnc2[C@H](C)OC)c2c3cc(ccc31)N1CCO[C@@H](C[C@H](NC(=O)[C@H](C(C)C)N(C)C(=O)C3(F)CCN(C(=O)C#CC(C)(C)N(C)C)CC3)C(=O)N3CCC[C@H](N3)C(=O)OCC(C)(C)C2)C1` (atropisomer, axis not shown) [Example A647, 1-(4-(dimethylamino)-4-methylpent-2-ynoyl)-N-((2S)-1-(((2^2S,6^3S,4S)-1^1-ethyl-1^2-(2-((S)-1-methoxyethyl)pyridin-3-yl)-10,10-dimethyl-5,7-dioxo-6^1,6^2,6^3,6^4,6^5,6^6-hexahydro-1^1H-8-oxa-2(4,2)-morpholina-1(5,3)-indola-6(1,3)-pyridazinacycloundecaphane-4-yl)amino)-3-methyl-1-oxobutan-2-yl)-4-fluoro-N-methylpiperidine-4-carboxamide], the IC50 on KRAS G12D is 1 to 10 µM; on NRAS Q61K, 1 to 10 µM; on KRAS G13D, 1 to 10 µM; at KRAS G12S, 1 to 10 µM; on KRAS WT, 0.1 to 1 µM; on KRAS G12V, 1 to 10 µM. Further, the half-inhibitory concentration (IC50) was 1 to 10 µM on KRAS Q61H, < 0.01 µM at K-Ras G12C and 0.1 to 1 µM at NRAS WT.

As for `C=CC(=O)N1CC[C@]2(C1)OCN([C@H](C(=O)N[C@H]1Cc3cccc(n3)-c3ccc4c(c3)c(c(-c3cccnc3[C@H](C)OC)n4CC)CC(C)(C)COC(=O)[C@@H]3CCCN(N3)C1=O)C(C)C)C2=O` (atropisomer, axis not shown) [Example A652], the IC50 at KRAS G12D is > 10 µM; at NRAS Q61K, 1 to 10 µM; on KRAS G13D it was 1 to 10 µM; on KRAS G12S, 1 to 10 µM; on KRAS WT, 1 to 10 µM; at KRAS G12V, 1 to 10 µM. The 50% inhibitory concentration (IC50) at KRAS Q61H was 1 to 10 µM; on K-Ras G12C, 0.1 to 1 µM; at NRAS WT it was 1 to 10 µM.

As for `CCn1c(-c2cccnc2[C@H](C)OC)c2c3cc(ccc31)-c1cc(CF)cc(c1)C[C@H](NC(=O)[C@H](C(C)C)N(C)C(=O)[C@H]1CCN(C(=O)C#CC(C)(C)N(C)C)C1)C(=O)N1CCC[C@H](N1)C(=O)OCC(C)(C)C2` (atropisomer, axis not shown) [Example A658], the IC50 on KRAS G12D was 1 to 10 µM; on NRAS Q61K it was > 10 µM; at KRAS G13D it was 1 to 10 µM; at KRAS G12S, 1 to 10 µM; at KRAS WT, 1 to 10 µM; on KRAS G12V, 1 to 10 µM. For the same compound, the IC50 on KRAS Q61H is 1 to 10 µM; on K-Ras G12C, < 0.01 µM; at NRAS WT, 1 to 10 µM.

With `C=CC(=O)N1CC2(CCCN2C(=O)N(C)[C@H](C(=O)N[C@H]2Cc3nc(cs3)-c3ccc4c(c3)c(c(-c3cccnc3[C@H](C)OC)n4CC)CC(C)(C)COC(=O)[C@@H]3CCCN(N3)C2=O)C(C)C)C1` (atropisomer, axis not shown) [Example A667], the IC50 fell in the range of 0.1 to 1 µM on KRAS G12D; 0.01 to 0.1 µM at NRAS Q61K; 0.1 to 1 µM at KRAS G13D; 0.1 to 1 µM on KRAS G12S; 0.01 to 0.1 µM at KRAS WT; 0.1 to 1 µM at KRAS G12V. Besides, the IC50 on KRAS Q61H was 0.01 to 0.1 µM; at K-Ras G12C it was < 0.01 µM; at NRAS WT, 0.01 to 0.1 µM.
